Measured values taken from ChEMBL document CHEMBL1123842, “Structural modification study of mitoxantrone (DHAQ). Chloro-substituted mono- and bis[(aminoalkyl)amino]anthraquinones” (1987).

Legend:
[1] = tested on: P388; assay: In vivo antineoplastic activity was determined in BDF1 mice implanted with P388 leukemia and activity is expressed as T/C at 400 mg/kg ip dose (Q4dx2 treatment); format: functional, Mus musculus; settings: route intraperitoneal
[2] = tested on: L1210; assay: In vitro cytotoxicity against L1210 leukemia cells was determined; format: functional; settings: Mus musculus
[3] = tested on: P388; assay: In vivo antineoplastic activity was determined in BDF1 mice implanted with P388 leukemia and activity is expressed as T/C at 200 mg/kg ip dose (Q4dx2 treatment); format: functional, Mus musculus; settings: route intraperitoneal
[4] = tested on: P388; assay: In vivo antineoplastic activity was determined in BDF1 mice implanted with P388 leukemia and activity is expressed as T/C at 100 mg/kg ip dose (Q4dx2 treatment); format: functional, Mus musculus; settings: route intraperitoneal
[5] = tested on: Colon adenocarcinoma cell line; assay: In vitro cytotoxicity against Human colon adenocarcinoma cells was determined; format: functional
[6] = tested on: P388; assay: In vivo antineoplastic activity was determined in BDF1 mice implanted with P388 leukemia and activity is expressed as T/C at 120 mg/kg ip dose (Q1dx5 treatment); settings: route intraperitoneal
[7] = tested on: P388; assay: In vivo antineoplastic activity was determined in BDF1 mice implanted with P388 leukemia and activity is expressed as T/C at 30 mg/kg ip dose (Q1dx5 treatment); settings: route intraperitoneal
[8] = tested on: P388; assay: In vivo antineoplastic activity was determined in BDF1 mice implanted with P388 leukemia and activity is expressed as T/C at 60 mg/kg ip dose (Q1dx5 treatment); settings: route intraperitoneal
[9] = tested on: P388; assay: In vivo antineoplastic activity was determined in BDF1 mice implanted with P388 leukemia and activity is expressed as T/C at 100 mg/kg ip dose (Q4dx5 treatment); format: functional, Mus musculus; settings: route intraperitoneal
[10] = tested on: P388; assay: In vivo antineoplastic activity was determined in BDF1 mice implanted with P388 leukemia and activity is expressed as T/C at 200 mg/kg ip dose (Q1dx5 treatment); settings: route intraperitoneal
[11] = tested on: B16; assay: In vivo antineoplastic activity was determined in BDF1 mice implanted with B16 melanoma and activity expressed as T/C at 25 mg/kg ip dose (Q1Dx9 treatment); format: functional, Mus musculus; settings: route intraperitoneal
[12] = tested on: P388; assay: In vivo antineoplastic activity was determined in BDF1 mice implanted with P388 leukemia and activity is expressed as T/C at 50 mg/kg ip dose (Q4dx2 treatment); format: functional, Mus musculus; settings: route intraperitoneal
[13] = tested on: B16; assay: In vivo antineoplastic activity was determined in BDF1 mice implanted with B16 melanoma and activity expressed as T/C at 12.5 mg/kg ip dose (Q1Dx9 treatment); format: functional, Mus musculus; settings: route intraperitoneal
[14] = tested on: B16; assay: In vivo antineoplastic activity was determined in BDF1 mice implanted with B16 melanoma and activity expressed as T/C at 50 mg/kg ip dose (Q1Dx9 treatment); format: functional, Mus musculus; settings: route intraperitoneal
[15] = tested on: B16; assay: In vivo antineoplastic activity was determined in BDF1 mice implanted with B16 melanoma and activity expressed as T/C at 6.25 mg/kg ip dose (Q1Dx9 treatment); format: functional, Mus musculus; settings: route intraperitoneal
[16] = tested on: P388; assay: In vivo antineoplastic activity was determined in BDF1 mice implanted with P388 leukemia and activity is expressed as T/C at 120 mg/kg ip dose (Q1dx5 treatment); settings: route intraperitoneal; remark: listed apart in the source
[17] = tested on: P388; assay: In vivo antineoplastic activity was determined in BDF1 mice implanted with P388 leukemia and activity is expressed as T/C at 20 mg/kg ip dose (Q4dx2 treatment); format: functional, Mus musculus; settings: route intraperitoneal
[18] = tested on: P388; assay: In vivo antineoplastic activity was determined in BDF1 mice implanted with P388 leukemia and activity is expressed as T/C at 40 mg/kg ip dose (Q4dx2 treatment); format: functional, Mus musculus; settings: route intraperitoneal
[19] = tested on: P388; assay: In vivo antineoplastic activity was determined in BDF1 mice implanted with P388 leukemia and activity is expressed as T/C at 160 mg/kg ip dose (Q4dx2 treatment); format: functional, Mus musculus; settings: route intraperitoneal
[20] = tested on: P388; assay: In vivo antineoplastic activity was determined in BDF1 mice implanted with P388 leukemia and activity is expressed as T/C at 10 mg/kg ip dose (Q4dx2 treatment); format: functional, Mus musculus; settings: route intraperitoneal
[21] = tested on: P388; assay: In vivo antineoplastic activity was determined in BDF1 mice implanted with P388 leukemia and activity is expressed as T/C at 80 mg/kg ip dose (Q4dx2 treatment); format: functional, Mus musculus; settings: route intraperitoneal
[22] = tested on: P388; assay: Antineoplastic activity was determined in BDF1 mice in vivo implanted with P388 leukemia and t/c was determined at 40 mg/kg ip dose (Q4dx9 treatment); format: functional, Mus musculus; settings: route intraperitoneal
[23] = tested on: P388; assay: In vivo antineoplastic activity was determined in BDF1 mice implanted with P388 leukemia and activity is expressed as T/C at 160 mg/kg ip dose (Q1dx9 treatment); settings: route intraperitoneal
[24] = tested on: P388; assay: In vivo antineoplastic activity was determined in BDF1 mice implanted with P388 leukemia and activity is expressed as T/C at 80 mg/kg ip dose (Q1dx9 treatment); settings: route intraperitoneal
[25] = tested on: P388; assay: In vivo antineoplastic activity was determined in BDF1 mice implanted with P388 leukemia and activity is expressed as T/C at 100 mg/kg ip dose (Q1dx5 treatment); settings: route intraperitoneal
[26] = tested on: B16; assay: In vivo antineoplastic activity was determined in BDF1 mice implanted with B16 melanoma and activity expressed as T/C at 80 mg/kg ip dose (Q1Dx9 treatment); format: functional, Mus musculus; settings: route intraperitoneal
[27] = tested on: B16; assay: In vivo antineoplastic activity was determined in BDF1 mice implanted with B16 melanoma and activity expressed as T/C at 100 mg/kg ip dose (Q1Dx9 treatment); format: functional, Mus musculus; settings: route intraperitoneal
[28] = tested on: B16; assay: In vivo antineoplastic activity was determined in BDF1 mice implanted with B16 melanoma and activity expressed as T/C at 20 mg/kg ip dose (Q1Dx9 treatment); format: functional, Mus musculus; settings: route intraperitoneal
[29] = tested on: P388; assay: In vivo antineoplastic activity was determined in BDF1 mice implanted with P388 leukemia and activity is expressed as T/C at 6.25 mg/kg ip dose (Q4dx5 treatment); format: functional, Mus musculus; settings: route intraperitoneal
[30] = tested on: B16; assay: In vivo antineoplastic activity was determined in BDF1 mice implanted with B16 melanoma and activity expressed as T/C at 160 mg/kg ip dose (Q1Dx9 treatment); format: functional, Mus musculus; settings: route intraperitoneal
[31] = tested on: P388; assay: In vivo antineoplastic activity was determined in BDF1 mice implanted with P388 leukemia and activity is expressed as T/C at 12.5 mg/kg ip dose (Q4dx5 treatment); format: functional, Mus musculus; settings: route intraperitoneal
[32] = tested on: P388; assay: In vivo antineoplastic activity was determined in BDF1 mice implanted with P388 leukemia and activity is expressed as T/C at 50 mg/kg ip dose (Q1dx5 treatment); settings: route intraperitoneal
[33] = tested on: B16; assay: In vivo antineoplastic activity was determined in BDF1 mice implanted with B16 melanoma and activity expressed as T/C at 40 mg/kg ip dose (Q1Dx9 treatment); format: functional, Mus musculus; settings: route intraperitoneal
[34] = tested on: P388; assay: In vivo antineoplastic activity was determined in BDF1 mice implanted with P388 leukemia and activity is expressed as T/C at 25 mg/kg ip dose (Q1dx5 treatment); settings: route intraperitoneal
[35] = tested on: P388; assay: In vivo antineoplastic activity was determined in BDF1 mice implanted with P388 leukemia and activity is expressed as T/C at 0.25 mg/kg; format: functional, Mus musculus
[36] = tested on: P388; assay: In vivo antineoplastic activity was determined in BDF1 mice implanted with P388 leukemia and activity is expressed as T/C at 0.5 mg/kg; format: functional, Mus musculus
[37] = tested on: P388; assay: In vivo antineoplastic activity was determined in BDF1 mice implanted with P388 leukemia and activity is expressed as T/C at 0.06 mg/kg; format: functional, Mus musculus
[38] = tested on: P388; assay: In vivo antineoplastic activity was determined in BDF1 mice implanted with P388 leukemia and activity is expressed as T/C at 2 mg/kg; format: functional, Mus musculus
[39] = tested on: P388; assay: In vivo antineoplastic activity was determined in BDF1 mice implanted with P388 leukemia and activity is expressed as T/C at 0.12 mg/kg; format: functional, Mus musculus
[40] = tested on: P388; assay: In vivo antineoplastic activity was determined in BDF1 mice implanted with P388 leukemia and activity is expressed as T/C at 1 mg/kg; format: functional, Mus musculus

CN(C)CCNc1ccc(Cl)c2c1C(=O)c1c(O)ccc(Cl)c1C2=O
T/C [1]: 125
CC50 [2]: 176 nM
T/C [3]: 113

O=C1c2cccc(NCCNCCO)c2C(=O)c2cccc(Cl)c21
T/C [4]: 100
CC50 [2]: 1170 nM
T/C [3]: 105
CC50 [5]: 1400 nM

CN(C)CCNc1ccc(Cl)c2c1C(=O)c1c(O)ccc(O)c1C2=O
T/C [6]: 169
T/C [7]: 121
CC50 [2]: 36.2 nM
T/C [8]: 137

CN(C)CCNc1ccc(Cl)c2c1C(=O)c1c(NCCN(C)C)ccc(Cl)c1C2=O
T/C [9]: 113
CC50 [2]: 1670 nM
T/C [10]: 119

CN(C)CCCNc1ccc(Cl)c2c1C(=O)c1c(O)ccc(O)c1C2=O
T/C [6]: 129
T/C [7]: 109
CC50 [2]: 265 nM
T/C [8]: 123

CN(C)CCNc1ccc(NCCN(C)C)c2c1C(=O)c1c(Cl)ccc(Cl)c1C2=O
T/C [4]: 120
CC50 [2]: 117 nM
T/C [11]: 141
T/C [12]: 110
T/C value [13]: 143
T/C [14]: 133
T/C [3]: 117
T/C [15]: 117
CC50 [5]: 130 nM

O=C1c2c(O)ccc(Cl)c2C(=O)c2c(NCCNCCO)ccc(Cl)c21
T/C [1]: 111
T/C [3]: 96

CN(C)CCNc1ccc(O)c2c1C(=O)c1c(Cl)ccc(Cl)c1C2=O
T/C [7]: 136
T/C [16]: 176
CC50 [2]: 86.9 nM
T/C [8]: 150
CC50 [5]: 522 nM

CN(C)CCNc1ccc(Cl)c2c1C(=O)c1c(Cl)ccc(NCCN(C)C)c1C2=O
T/C [1]: 123
T/C [4]: 115
CC50 [2]: 385 nM
T/C [3]: 128
CC50 [5]: 229 nM

O=C1c2c(O)ccc(O)c2C(=O)c2c(NCCNCCO)ccc(Cl)c21
T/C [17]: 125
T/C [18]: 130
CC50 [2]: 398 nM
T/C [19]: 184
T/C [20]: 113
T/C [21]: 154

O=C1c2cccc(Cl)c2C(=O)c2c(NCCNCCO)cccc21
T/C [22]: 116
T/C [23]: 120
T/C [24]: 124

O=C1c2c(O)ccc(NCCNCCO)c2C(=O)c2c(Cl)ccc(Cl)c21
T/C [25]: 219
T/C [26]: 271
T/C [27]: 270
CC50 [2]: 86.6 nM
T/C [11]: 199
T/C [28]: 224
T/C [13]: 172
T/C [14]: 252
T/C [29]: 154
T/C [30]: 326
T/C [15]: 166
T/C [31]: 146
T/C [32]: 180
T/C [33]: 231
T/C [34]: 203

CN(C)CCNc1ccc(Cl)c2c1C(=O)c1c(Cl)ccc(O)c1C2=O
T/C [18]: 103
CC50 [2]: 1130 nM
T/C [21]: 117

O=C1c2c(O)ccc(O)c2C(=O)c2c(NCCNCCO)ccc(NCCNCCO)c21 [MITOXANTRONE]
T/C [35]: 280
T/C [36]: 299
T/C [37]: 208
T/C [38]: 280
T/C [39]: 200
T/C [40]: 277
